This note sets out measurements from patent US20130150399A1, “INHIBITORS OF THE UNFOLDED PROTEIN RESPONSE AND METHODS FOR THEIR USE” (The Board of Trustees of the Leland Stanford Junior …, priority 2006, published 2013).

The test system of one test is HIF-1α. As to the kind of experiment: Western immunoblot of HIF-1α, HT1080 cells under hypoxia. Particulars: 2 μM; 24 hours of hypoxia. Type of test: cell-based, human. On the procedure:
Cells (2×10^6) were cultured in 10-cm dishes, collected using a cell scraper at 4° C., and lysed by addition of 150 μl cell lysis buffer [50 mM Tris pH 7.4, 150 mM NaCl, 10% glycerol, 0.5% Triton X-100. 0.5% NP-40, 2 mM Na3VO4, 20 mM beta-glycerophosphate, 10 mM NaF, 1 mM DTT, 1 mM PMSF). Lysates were centrifuged for 5 min at 10,000×g, and proteins (˜40 μg) were resolved by SDS-PAGE followed by semi-dry transfer to nitrocellulose membranes. Membranes were blocked in TBS-5% milk supplemented with 0.1% Tween-20. The blots were then probed overnight with relevant antibodies, washed, and incubated for 2 hours with species-specific secondary antibodies conjugated to horseradish peroxidase. After washing in block solution, immunoreactive material was detected by enhanced chemiluminescence (SuperSignal West Dura Extended, Pierce, Inc., Rockville, Ill.).
A. XBP-luciferase reporter construct. […] After 24 hours, luciferase activity was analyzed in an automated plate reader. For each cell line, values are expressed as the percent inhibition of the median for Tm/Tg-treated wells, corrected for background. […] Values are expressed as the fold increases over uninduced levels. […] Cells were harvested, lysed, and analyzed by immunoblotting with antisera specific for HIF-1α (top), XBP-1s (middle) or actin (bottom). […] Total RNA was analyzed by Northern blotting using radiolabeled probes specific for P58^IPK or DER-1. […]
(In general: Immunoblotting shows a protein as a band on a membrane.)

A further test relates to HT1080 cells. Nature of the test: Clonogenic survival (colony formation) assay, HT1080. Type of test: cell-based, human. On the procedure:
Several of the candidate irestatins were tested in a hypoxia clonogenic survival assay. […] HT1080 fibrosarcoma cells stably were treated with 1 uM of the indicated irestatin or left untreated, and incubated in hypoxia (0.01% oxygen) for 48 hrs at 37° C. Cells were harvested and counted, and allowed to form colonies under normal oxygen tension. Survival rate is expressed as the fraction of colonies formed divided by the total number of cells seeded for each condition. For all experiments, cells were plated in triplicate, and all experiments were repeated at least three times. These experiments were repeated using MiaPaCa2 cells in place of the HT1080 fibrosarcoma cells.
For hypoxia survival assays, cells were grown in 60 mm dishes until reaching at 50-70% confluence and shifted to hypoxia (0.1% O2) for 48 hrs. Cells were trypsinized, counted using a hemocytometer, and replated in triplicate at 1,000-20,000 cells per plate in normal culture medium. After 10-12 days of growth under normal oxygen conditions, colonies were stained with 0.2% crystal violet in ethanol and counted. Survival values are expressed as the number of colonies divided by the total number of cells seeded for each condition, normalized to the plating efficiency under normal oxygen conditions. At least three independent experiments were performed.
A. Effect of irestatin 9389 on PERK and ATF6 pathways. HT1080 cells were treated with vehicle alone (lanes 1-4) or 2.5 μM irestatin 9389 (lanes 5-8) and cultured under aerobic conditions for 18 hours (N) or shifted to hypoxia for the indicated times. Protein lysates were analyzed by Western blot analysis using antisera specific for ATF6 (top), CHOP/GADD153 (middle) or actin (bottom). […] Cells were harvested, counted, and allowed to grow under normal culture conditions for 11-12 days. […] D. Quantification of clonogenic survival assay. […] F. Quantification of TUNEL-positive cells. […] Cells were harvested at the indicated times and counted by hemocytometer. Values represent the mean calculated from triplicate experiments+/−SEM.

`Cc1csc(NC(=O)CSc2nc3c(c(C(F)(F)F)c2C#N)CCC3)n1` [Compound 9389]: in the test with HIF-1α, the “expression of HIF-1α” value was “not affected”. For the same compound, in the test with HT1080 cells (2.5 μM, hypoxia for 48 hours), the colony formation result is listed as “strongly inhibited colony formation”. Besides, the “survival of HT1080 cells (colony formation)” value in the test on HT1080 cells (2.5 μM, normal oxygen conditions) was “negligible effect on the survival”. Besides, the “decrease in the rate of colony formation” value in the test with HT1080 cells (exposure during hours 40-48 of hypoxia, data not shown) is recorded as 8 fold.
